Measured values as given in patent publication US20180153807A1, “COMPOSITIONS AND METHODS FOR TREATING MYCOBACTERIA INFECTIONS AND LUNG DISEASE” (priority 2015, published 2018).
Like-named read-outs stand apart in the source and are kept apart here.

Experiments:
[1] = rats; cited from earlier work
[2] = tested on: Mycobacterium avium complex (MAC) 104 biofilm; test: Cochleate treatment of Mycobacteria biofilm on polarized A549 cells in transwell; format: cell-based; settings: delivered daily to bottom well, MAC 104 biofilm on A549 cells
Description: A549 alveolar epithelial cells were cultured in a transwell system. A549 cells became polarized after 6 days and integrity. Bacteria were seeded on the top (apical surface) of the cells. Seven days were allowed for biofilm formation.
Mycobacterium avium complex (MAC) 104 (10^5 bacteria) infection inoculum.
0.1 ml of the different treatments were delivered to the bottom well daily. The basolateral surface (bottom) of the cells were immersed in the tissue culture medium present in the bottom well. Three replicas per experimental group were tested in two different experiments.
Biofilm and epithelial cells were lysed and diluted and plated onto 7H10.

[3] = tested on: Mycobacterium avium complex (MAC)
Description: C57 BL/6 mice were infected with 8.3×10^6 of Mycobacterium avium complex (MAC) intranasally and the infection was allowed to establish for 7 days. Then baseline bacterial load was determined in 10 mice and treatment protocols were initiated. Mice were treated daily for 4 weeks (orally or with intraperitonal injection of free amikacin). Mice were harvested and lung and spleens were removed, homogenized and plated to determine the bacterial load. Experimental groups had 12 mice each.

SMILES: NCC[C@H](O)C(=O)N[C@@H]1C[C@H](N)[C@@H](O[C@H]2O[C@H](CN)[C@@H](O)[C@H](O)[C@H]2O)[C@H](O)[C@H]1O[C@H]1O[C@H](CO)[C@@H](O)[C@H](N)[C@H]1O [Free amikacin, Amikacin]
- published NOAEL for injected (intravenous) amikacin [1]: 100 mg/kg
- CFU/bacteria, 14 days ([2]; 20 μg/ml): 9.1 ± 0.4 × 10^5 CFU
- CFU/bacteria, 14 days ([2]; 100 μg/ml): 3.2 ± 0.3 × 10^5 CFU
- bacterial load ([3]; IP 100 mg/Kg, daily for 4 weeks, 100 mg/kg): 5.6 ± 0.4 × 10^3^(2)(3) CFU
- bacterial load ([3]; IP 100 mg/Kg, daily for 4 weeks, listed as AMK, 100 mg/kg): 5.6×10^3 CFU
- kind of effect observed (in words) ([3]; daily for 4 weeks): bactericidal
- toxicity, histopathology including kidneys (in words) ([3]; mouse, in vivo): no toxicity was observed
- bacterial load ([3]; oral, daily for 4 weeks, dose not given): 2.2 ± 0.5 × 10^5^(1) CFU
